Experimental data from patent US20230357162A1, “COMPOUNDS, COMPOSITIONS AND METHODS” (Denali Therapeutics Inc., priority 2020, published 2023).
Counter-ions that a name gives are not always drawn.

System: IL-1β secretion, THP-1 cells
Assay: IL-1β secretion assay in PMA-differentiated THP-1 cells stimulated with LPS and nigericin (ELISA readout)
Type: cell-based
Conditions: 25 ng/mL LPS then nigericin
Outline: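 THP-1 cells differentiated with 5 ng/mL PMA for 40 h, primed in serum-free medium with 25 ng/mL LPS for 2 h, then compound (0.5% DMSO) for 1 h before nigericin for 2 h at 37°C. Supernatant IL-1β quantified by ELISA; normalized to high (LPS + 5 µM nigericin) and low (LPS only) controls.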

[1] = Homo sapiens, THP-1, inhibition of IL-1β secretion, class column of Table 3
[2] = Homo sapiens, THP-1, inhibition of IL-1β secretion, numeric column of Table 3
[3] = inhibition of IL-1β secretion, class column of Table 3
[4] = inhibition of IL-1β secretion, numeric column of Table 3

Row | SMILES | IC50 [1] [µM] | IC50 [2] [µM] | IC50 [3] [µM] | IC50 [4] [µM]
1 | O=C(Cn1nc(C(F)F)c2c(F)c(Br)ccc2c1=O)Nc1ncc(F)cn1 [Example 26, 2-[6-bromo-4-(difluoromethyl)-5-fluoro-1-oxophthalazin-2-yl]-N-(5-fluoropyrimidin-2-yl)acetamide] | < 10 | 0.078 |  | 
2 | CC(C)c1nn(CC(=O)Nc2ncccn2)c(=O)c2ccc(Br)cc12 [Example 39, 2-(6-bromo-1-oxo-4-propan-2-ylphthalazin-2-yl)-N-pyrimidin-2-ylacetamide] | < 10 | 0.054 |  | 
3 | CC(C)c1nn(CC(=O)Nc2ccnc(C3CC3)n2)c(=O)c2ccc(Br)cc12 [Example 51, 2-(6-bromo-1-oxo-4-propan-2-ylphthalazin-2-yl)-N-(2-cyclopropylpyrimidin-4-yl)acetamide] | < 10 | 0.863 |  | 
4 | CCN1CCC[C@@H](NC(=O)Cn2nc(C(C)C)c3cc(C)ccc3c2=O)C1 [Example 4] | < 10 | 1.83 |  | 
5 | CC(C)c1nn(CC(=O)Nc2nc(Cl)ccc2F)c(=O)c2ccc(Br)cc12 [Example 36, 2-(6-bromo-1-oxo-4-propan-2-ylphthalazin-2-yl)-N-(6-chloro-3-fluoropyridin-2-yl)acetamide] | < 10 | 2.8 |  | 
6 | CC(C)c1nn(CC(=O)Nc2cnn(C3CCC3)c2)c(=O)c2ccc(Br)cc12 [Example 48, 2-(6-bromo-1-oxo-4-propan-2-ylphthalazin-2-yl)-N-(1-cyclobutylpyrazol-4-yl)acetamide] | < 10 | 4.09 |  | 
7 | CC(C)c1nn(CC(=O)NC2CNCC(F)(F)C2)c(=O)c2ccc(Br)cc12 (stereo not shown) [Example 11, 2-(6-bromo-4-isopropyl-1-oxophthalazin-2(lH)-yl)-N-(5,5-difluoropiperidin-3-yl)acetamide HCl salt] | < 10 | 3.15 |  | 
8 | C[C@H]1C[C@@H](Oc2nn(CC(=O)Nc3ncc(F)cn3)c(=O)c3ccc(Br)cc23)C1 [Example 157, 2-[6-bromo-4-(3-cis-methylcyclobutoxy)-1-oxo-phthalazin-2-yl]-N-(5-fluoropyrimidin-2-yl)acetamide] | < 10 | 0.139 |  | 
9 | CC(C)c1nn(CC(=O)Nc2ncncc2F)c(=O)c2ccc(OC(F)(F)F)cc12 [Example 15, N-(5-fluoropyrimidin-4-yl)-2-[1-oxo-4-propan-2-yl-6-(trifluoromethoxy)phthalazin-2-yl]acetamide] | < 10 | 6.27 |  | 
10 | CC1(C)CC(Oc2nn(CC(=O)Nc3ncc(F)cn3)c(=O)c3ccc(Br)cc23)C1 [Example 156, 2-[6-bromo-4-(3,3-dimethylcyclobutoxy)-1-oxo-phthalazin-2-yl]-N-(5-fluoropyrimidin-2-yl)acetamide] | < 10 | 0.07 |  | 
11 | CC(C)c1nn(CC(=O)N[C@H]2C[C@@](C)(O)C2)c(=O)c2cc(Br)ccc12 [Example 2, 2-(7-Bromo-4-isopropyl-1-oxophthalazin-2(1H)-yl)-N-(cis-3-hydroxy-3-methylcyclobutyl)acetamide] | < 10 | 2.11 |  | 
12 | CC(C)c1nn(CC(=O)NC2(C)CCOCC2)c(=O)c2ccc(Br)cc12 [Example 44, 2-(6-bromo-1-oxo-4-propan-2-ylphthalazin-2-yl)-N-(4-methyloxan-4-yl)acetamide] | 10 to 15 | 12.3 |  | 
13 | CC(C)c1nn(CC(=O)Nc2ncncc2F)c(=O)c2ccc(OC(F)F)cc12 [Example 16, 2-[6-(difluoromethoxy)-1-oxo-4-propan-2-ylphthalazin-2-yl]-N-(5-fluoropyrimidin-4-yl)acetamide] | < 10 | 0.787 |  | 
14 | CC(C)c1nn(CC(=O)Nc2ncncc2F)c(=O)c2ccc(I)cc12 [Example 20, N-(5-fluoropyrimidin-4-yl)-2-(6-iodo-1-oxo-4-propan-2-ylphthalazin-2-yl)acetamide] | < 10 | 0.018 |  | 

Further lines, results first:

Row | IC50 [1] [µM] | IC50 [2] [µM] | IC50 [3] [µM] | IC50 [4] [µM] | SMILES
15 | < 10 | 2.09 |  |  | O=C(Cn1nc(C(F)F)c2c(F)c(C3CCC3)ccc2c1=O)Nc1ncc(F)cn1 [Example 185, 2-[6-cyclobutyl-4-(difluoromethyl)-5-fluoro-1-oxophthalazin-2-yl]-N-(5-fluoropyrimidin-2-yl)acetamide]
16 | < 10 | 0.265 |  |  | O=C(Cn1nc(C(F)F)c2cc(Br)ccc2c1=O)Nc1ncc(F)cn1 [Example 103, 2-[6-bromo-4-(difluoromethyl)-1-oxophthalazin-2-yl]-N-(5-fluoropyrimidin-2-yl)acetamide]
17 | < 10 | 0.087 |  |  | COc1nn(CC(=O)Nc2ncc(F)cn2)c(=O)c2ccc(Br)c(F)c12 [Example 140, 2-(6-bromo-5-fluoro-4-methoxy-1-oxophthalazin-2-yl)-N-(5-fluoropyrimidin-2-yl)acetamide]
18 | < 10 | 0.457 |  |  | CC(C)c1nn(CC(=O)Nc2ccc(C#N)cc2F)c(=O)c2ccc(Br)cc12 [Example 59, 2-(6-bromo-1-oxo-4-propan-2-ylphthalazin-2-yl)-N-(4-cyano-2-fluorophenyl)acetamide]
19 | > 15 | > 50 |  |  | O=C(Cn1nc(C(F)(F)F)c2ccc(Br)cc2c1=O)Nc1ncncc1F [Example 132, 2-[7-bromo-1-oxo-4-(trifluoromethyl)phthalazin-2-yl]-N-(5-fluoropyrimidin-4-yl)acetamide]
20 | < 10 | 1.35 |  |  | CC(C)c1nn(CC(=O)Nc2nccc(C(F)(F)F)n2)c(=O)c2ccc(Br)cc12 [Example 110, 2-(6-bromo-1-oxo-4-propan-2-ylphthalazin-2-yl)-N-[4-(trifluoromethyl)pyrimidin-2-yl]acetamide]
21 | < 10 | 0.764 |  |  | CCN1CCC[C@@H](NC(=O)Cn2nc(C(F)(F)F)c3cc(Br)ccc3c2=O)C1 [Example 89, 2-[6-bromo-1-oxo-4-(trifluoromethyl)phthalazin-2-yl]-N-[(3R)-1-ethylpiperidin-3-yl]acetamide]
22 | < 10 | 4.86 |  |  | CN(C)c1ccc2c(=O)n(CC(=O)Nc3ncc(F)cn3)nc(Br)c2c1 [Example 180, 2-[4-bromo-6-(dimethylamino)-1-oxophthalazin-2-yl]-N-(5-fluoropyrimidin-2-yl)acetamide]
23 | < 10 | 0.163 |  |  | CC(C)c1nn(CC(=O)Nc2ccc(C#N)cn2)c(=O)c2ccc(Br)cc12 [Example 119, 2-(6-bromo-1-oxo-4-propan-2-ylphthalazin-2-yl)-N-(5-cyanopyridin-2-yl)acetamide]
24 |  |  | < 10 | 2.44 | CC(O)c1nn(CC(=O)Nc2ncccn2)c(=O)c2ccc(Br)cc12 (single isomer, unassigned) [Example 102, 2-(6-bromo-4-(1-hydroxyethyl)-1-oxophthalazin-2(1H)-yl)-N-(pyrimidin-2-yl)acetamide]
25 | < 10 | 0.23 |  |  | O=C(Cn1nc(Br)c2cc(Br)ccc2c1=O)Nc1ncc(F)cn1 [Example 181, 2-(4,6-Dibromo-1-Oxophthalazin-2-yl)-N-(5-Fluoropyrimidin-2-yl)Acetamide]
26 | < 10 | 1.41 |  |  | CC(C)c1nn(CC(=O)NC2CCOC(C)(C)C2)c(=O)c2ccc(Br)cc12 (stereo not shown) [Example 60, 2-(6-bromo-1-oxo-4-propan-2-ylphthalazin-2-yl)-N-(2,2-dimethyloxan-4-yl)acetamide]
27 |  |  | < 10 | 0.237 | O=C(Cn1nc([C@H]2C[C@H]2F)c2cc(Br)ccc2c1=O)Nc1ncc(F)cn1 (single isomer, unassigned) [Example 166, 2-[6-bromo-4-[2-cis-fluorocyclopropyl]-1-oxophthalazin-2-yl]-N-(5-fluoropyrimidin-2-yl)acetamide]
28 | < 10 | 0.025 |  |  | CC(C)c1nn(CC(=O)Nc2ncc(Cl)cn2)c(=O)c2ccc(Br)cc12 [Example 120, 2-(6-bromo-1-oxo-4-propan-2-ylphthalazin-2-yl)-N-(5-chloropyrimidin-2-yl)acetamide]
29 | < 10 | 0.61 |  |  | CCN1CCC[C@@H](NC(=O)Cn2nc(C(C)C)c3cc(Cl)ccc3c2=O)C1 [Example 79, 2-(6-chloro-1-oxo-4-propan-2-ylphthalazin-2-yl)-N-[(3R)-1-ethylpiperidin-3-yl]acetamide]
30 | < 10 | 0.485 |  |  | CCN1CCCC(NC(=O)Cn2nc(C(F)F)c3c(F)c(Br)ccc3c2=O)C1 (stereo not shown) [Example 183, 2-[6-bromo-4-(difluoromethyl)-5-fluoro-1-oxophthalazin-2-yl]-N-(1-ethylpiperidin-3-yl)acetamide]
31 | < 10 | 0.181 |  |  | N#Cc1cnc(NC(=O)Cn2nc(C(F)F)c3cc(Br)ccc3c2=O)nc1 [Example 136]
32 | < 10 | 0.68 |  |  | CCOc1nn(CC(=O)Nc2ncc(F)cn2)c(=O)c2ccc(Br)cc12 [Example 154, 2-(6-bromo-4-ethoxy-1-oxophthalazin-2-yl)-N-(5-fluoropyrimidin-2-yl)acetamide]
33 | > 15 | > 50 |  |  | CC(C)c1nn(CC(=O)Nc2ncncc2F)c(=O)c2cc(Br)c(F)cc12 [Example 86, 2-(7-bromo-6-fluoro-1-oxo-4-propan-2-ylphthalazin-2-yl)-N-(5-fluoropyrimidin-4-yl)acetamide]
34 | < 10 | 0.149 |  |  | O=C(Cn1nc(C2CC2)c2cc(Br)ccc2c1=O)Nc1ncc(F)cn1 [Example 164, 2-(6-bromo-4-cyclopropyl-1-oxophthalazin-2-yl)-N-(5-fluoropyrimidin-2-yl)acetamide]
35 | < 10 | 0.186 |  |  | O=C(Cn1nc(OCF)c2cc(Br)ccc2c1=O)Nc1ncc(F)cn1 [Example 137, 2-[6-bromo-1-oxo-4-(fluoromethoxy)phthalazin-2-yl]-N-(5-fluoropyrimidin-2-yl)acetamide]
